We go through 29 molecules from ChEMBL document CHEMBL1128712, “Increasing binding constants of ligands to carbonic anhydrase by using "greasy tails"” (J Med Chem, 1995).

Series [1] in a line: Partition coefficient (logD7.5). The settings on record: octanol/water, pH 7.5. The format is physicochemical.
The target of series [2] is Carbonic anhydrase 2 (Bos taurus) (UniProt P00921). Kind of series: Evaluation of binding constant to bovine carbonic anhydrase II, measured by fluorescence in 20 mM phosphate buffer (pH=7.5).
Series [3] is described as follows: Evaluation of ionization constant between octanol and 20 mM phosphate buffer (pH =7.5). The format is physicochemical. The settings on record: octanol/20 mM phosphate buffer.
Series [4] concerns the target Carbonic anhydrase 2 (Bos taurus) (UniProt P00921). As to the kind of experiment: Compound was tested for the binding affinity towards Carbonic anhydrase II by competitive fluorescence assay with dansylamide.

Chain of Carbonic anhydrase 2 (Bos taurus) (P00921 2-260 limits assumed): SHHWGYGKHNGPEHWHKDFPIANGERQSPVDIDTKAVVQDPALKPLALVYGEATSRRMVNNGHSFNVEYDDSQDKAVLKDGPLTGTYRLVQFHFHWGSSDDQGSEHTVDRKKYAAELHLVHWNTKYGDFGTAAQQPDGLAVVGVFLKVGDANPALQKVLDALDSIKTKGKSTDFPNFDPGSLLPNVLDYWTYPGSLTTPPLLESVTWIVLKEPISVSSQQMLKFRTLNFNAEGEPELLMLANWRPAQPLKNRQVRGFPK

A word on the logD: it is the decadic logarithm of the distribution of all forms, ionised or not, between an organic phase and buffer at a given pH. Read a high logD as a more lipophilic compound. As to `CCNC(=O)c1ccc(S(N)(=O)=O)cc1`, the logD in series [1] is 0.176. This molecule also yielded a Kb in series [2] of 5.9e+06 M⁻¹.

In series [1], `CCN(CC)C(=O)c1ccc(S(N)(=O)=O)cc1` gave a logD of 0.929. For the same molecule, the Kb in series [2] came to 1.7e+07 M⁻¹. In the same order, the values of `CC(C)CCC(=O)NCc1ccc(S(N)(=O)=O)cc1` are 1.04 and 4.8e+06 M⁻¹. In the same order, the values of `NS(=O)(=O)c1ccc(CNC(=O)CC2CCCC2)cc1` are 1.08 and 7.6e+06 M⁻¹. In the same order, the values of `NS(=O)(=O)c1ccc(CNC(=O)C2CCCCC2)cc1` are 1.08 and 7.6e+06 M⁻¹. Turning to `CC(C)(C)CC(=O)NCc1ccc(S(N)(=O)=O)cc1`, the logD in series [1] is 1.04. The molecule further displayed a Kb in series [2] of 7.1e+06 M⁻¹.

For orientation: pKa means the pH at which an ionisable group is half protonated. The low end stands for a stronger acid or weaker base, the high end for a weaker acid or stronger base. The molecule `NS(=O)(=O)c1ccc(CNC(=O)C(F)(F)C(F)(F)F)cc1` gave a pKa in series [3] of 9.8. In series [3], `NS(=O)(=O)c1ccc(CNC(=O)C(F)(F)F)cc1` returned a pKa of 10.1. In series [1], `CCCCCCNC(=O)c1ccc(S(N)(=O)=O)cc1` gave a logD of 2.21. The Kb in series [2] was 1.3e+08 M⁻¹. Taken in the same sequence, the figures for `NS(=O)(=O)c1ccc(C(=O)NCC(F)(F)C(F)(F)F)cc1` were 1.52 and 1.8e+08 M⁻¹. Molecule `CCC(=O)NCc1ccc(S(N)(=O)=O)cc1` returned a pKa in series [3] of 9.9.

In the case of `CN(C)C(=O)c1ccc(S(N)(=O)=O)cc1`, the log distribution coefficient (logD) in series [1] is 0.146. This molecule also displayed a Kb in series [2] of 1.1e+07 M⁻¹. In the same order, the values of `CCCCNC(=O)c1ccc(S(N)(=O)=O)cc1` are 1.11 and 6.3e+07 M⁻¹. `CCCCC(CC)C(=O)NCc1ccc(S(N)(=O)=O)cc1` (centres undefined) had a logD in series [1] of 1.84. This molecule also yielded a Kb in series [2] of 7.1e+06 M⁻¹. In the same order, the values of `NS(=O)(=O)c1ccc(CNC(=O)CCC2CCCC2)cc1` are 1.63 and 1.2e+07 M⁻¹. Taken in the same sequence, the figures for `NS(=O)(=O)c1ccc(C(=O)NCC(F)(F)F)cc1` were 0.845 and 4.7e+07 M⁻¹. Taken in the same sequence, the figures for `CCCNC(=O)c1ccc(S(N)(=O)=O)cc1` were 0.531 and 2.6e+07 M⁻¹. `CC1(C)C(C(=O)NCc2ccc(S(N)(=O)=O)cc2)C1(C)C` gave a pH-dependent lipophilicity (logD) in series [1] of 1.57. For the same molecule, the Kb in series [2] was 1.1e+07 M⁻¹. Taken in the same sequence, the figures for `CCCCCCC(=O)NCc1ccc(S(N)(=O)=O)cc1` were 1.46 and 5.7e+06 M⁻¹. In the same order, the values of `CCCN(CCC)C(=O)c1ccc(S(N)(=O)=O)cc1` are 2.08 and 1.9e+07 M⁻¹. Taken in the same sequence, the figures for `NS(=O)(=O)c1ccc(CNC(=O)CC2CCCCC2)cc1` were 1.62 and 1.3e+07 M⁻¹. The molecule `CCCCCC(=O)NCc1ccc(S(N)(=O)=O)cc1` had a logD in series [1] of 1.23. For the same molecule, the Kb in series [2] worked out at 5.1e+06 M⁻¹.

`CC(=O)NCc1ccc(S(N)(=O)=O)cc1` came in with a pKa in series [3] of 10.2.

On to `NS(=O)(=O)c1ccc(CNC(=O)C2CCCC2)cc1`, for which the logD in series [1] was 0.778. The molecule further yielded a Kb in series [2] of 6e+06 M⁻¹. In the same order, the values of `NS(=O)(=O)c1ccc(CNC(=O)C2CCCCCC2)cc1` are 1.49 and 1e+07 M⁻¹.

With `NS(=O)(=O)c1ccc(C(=O)NCC(F)(F)C(F)(F)C(F)(F)F)cc1`, the pH-dependent lipophilicity (logD) in series [1] is 2.04. The Kb in series [2] stood at 1.1e+09 M⁻¹. In the same order, the values of `CCC(CC)C(=O)NCc1ccc(S(N)(=O)=O)cc1` are 1 and 2.9e+06 M⁻¹. In the case of `CCCCCCCC(=O)NCc1ccc(S(N)(=O)=O)cc1`, in series [4], the Kb was determined as 1.2e+07 M⁻¹. The logD in series [1] was 1.84. `CCCC(C)CC(=O)NCc1ccc(S(N)(=O)=O)cc1` (centres undefined) had a logD in series [1] of 1.32. The same molecule returned a Kb in series [2] of 5.7e+06 M⁻¹.
